Assay results reported in publication PMC8457735, “Synthesis, Kinetics, Binding Conformations and Structure-activity Relationship of Potent Tyrosinase Inhibitors: Aralkylated 2-aminothiazole-ethyltriazole Hybrids” (Iranian Journal of Pharmaceutical Research : IJPR, 2021).
Entries after “also recorded” stand apart in the source; their conditions may differ.

Key:
mushroom tyrosinase = mushroom tyrosinase (Agaricus bisporus, UniProt C7FF04); assay: Kinetic analysis of tyrosinase inhibition (Lineweaver-Burk and secondary plots); format: biochemical
mushroom tyrosinase, sequence (C7FF04 1-392): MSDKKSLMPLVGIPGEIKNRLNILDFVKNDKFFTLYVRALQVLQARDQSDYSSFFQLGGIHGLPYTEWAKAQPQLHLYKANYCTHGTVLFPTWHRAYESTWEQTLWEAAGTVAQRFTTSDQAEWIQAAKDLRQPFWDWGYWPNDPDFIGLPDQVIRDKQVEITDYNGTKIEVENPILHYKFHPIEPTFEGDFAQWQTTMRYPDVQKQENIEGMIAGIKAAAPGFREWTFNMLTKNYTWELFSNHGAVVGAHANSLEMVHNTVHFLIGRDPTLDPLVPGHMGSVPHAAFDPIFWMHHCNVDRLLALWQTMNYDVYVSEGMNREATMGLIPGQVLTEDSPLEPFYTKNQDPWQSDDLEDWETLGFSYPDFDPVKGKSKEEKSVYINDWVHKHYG
Protocol: A series of experiments were performed to determine the inhibition kinetics of 7g, following the already reported methods ([54]). The concentrations for 7g were 0.00, 0.0018, 0.0036 and 0.0072 µM. Substrate L-DOPA concentrations were between 0.0625 to 2 mM in all kinetic studies. Pre-incubation and measurement time was the same as discussed in the mushroom tyrosinase inhibition assay protocol. Maximal initial velocity was determined from the initial linear portion of absorbance up to five minutes after the addition of enzyme at the 30s interval. The inhibition type of the enzyme was assayed by Lineweaver-Burk plots of the inverse of velocities (1/V) versus the inverse of substrate concentration 1/[L-DOPA] mM^-1.

[1] = Free radical scavenging assay (DPPH); settings: compound concentration 100 µg/mL
Protocol: Radical scavenging activity was determined by modifying the already reported method by 2, 2-diphenyl-1 picrylhydrazyl (DPPH) assay ([55]). The assay solution consisted of 100 µL of DPPH (150 µM), 20 µL of increasing concentration of test compounds, and the volume was adjusted to 200 µL in each well with CH3OH. After that, the assay reaction was then incubated for 30 minutes at room temperature. Ascorbic acid (Vitamin C) was used as a reference inhibitor. The assay measurements were carried out using a microplate reader (OPTI Max, Tunable) at 517 nm. The reaction rates were compared, and the percent inhibition caused by tested inhibitors was calculated. All experiments were repeated thrice.

Row | melting point | SMILES | radical scavenging activity [1] | further results
1 |  | CCn1c(Cc2csc(N)n2)nnc1SCc1ccc(Cl)cc1Cl [Compound 7g, 4-({5-[(2,4-Dichlorobenzyl)sulfanyl]-4-ethyl-4H-1,2,4-triazol-3-yl}methyl)-1,3-thiazol-2-amine] | 24% | Vmax (mushroom tyrosinase; L-DOPA activity in presence of 0.0018 µM 7g): 6.676 × 10^-5 ΔA/s; Vmax (mushroom tyrosinase; L-DOPA activity in presence of 0.0036 µM 7g): 4.712 × 10^-5 ΔA/s; Vmax (mushroom tyrosinase; L-DOPA activity in presence of 0.0072 µM 7g): 4.223 × 10^-5 ΔA/s; Inhibition Type (mushroom tyrosinase; Lineweaver-Burk plots, substrate L-DOPA 0.0625-2 mM): non-competitively; also recorded: Non-Competitive
2 |  | CCn1c(Cc2csc(N)n2)nnc1SCc1ccc(Cl)c(Cl)c1 [Compound 7h, 4-({5-[(3,4-Dichlorobenzyl)sulfanyl]-4-ethyl-4H-1,2,4-triazol-3-yl}methyl)-1,3-thiazol-2-amine] | 21% | 
3 | 108 to 109 °C | CCn1c(Cc2csc(N)n2)nnc1SCc1ccccc1Br [Compound 7i, 4-({5-[(2-Bromobenzyl)sulfanyl]-4-ethyl-4H-1,2,4-triazol-3-yl}methyl)-1,3-thiazol-2-amine] |  | 
4 | 150 to 151 °C | CCn1c(Cc2csc(N)n2)nnc1SCc1ccc(Br)cc1 [Compound 7k, -({5-[(4-Bromobenzyl)sulfanyl]-4-ethyl-4H-1,2,4-triazol-3-yl}methyl)-1,3-thiazol-2-amine] |  | 
